This note sets out measurements from patent US7205297B2, “Substituted 5-alkynyl pyrimidines having neurotrophic activity” (Krenitsky Pharmaceuticals, Inc., priority 2000, dated 2007).

The subject of one data set is PC12 cells. Briefly: Choline acetyltransferase (ChAT) assay in NGF-treated PC12 cells. Type of data set: cell-based, rat. The note with it: 3 days incubation with test compound, versus NGF alone. How it is done: Cultured PC12 cells (rat adrenal pheochromocytoma from ATCC) have receptors for NGF. Responses include promotion of neurite outgrowth and elevation of choline acetyltransferase (ChAT) (L. A. Greene and A. S. Tischler, Cell Neurobiol., 3, 373 (1982)).
The following assay is modified from that described in H L White and P W Scates, Neurochem. Res., 16, 63 (1991). PC12 cells were cultured at 37° C. in RPMI supplemented with HEPES buffer, pH7.5 (to 10 mM), fetal bovine serum, horse serum, glutamine, penicillin, streptomycin and non-essential amino acids. Cultures were split 1:3 every 3 to 4 days. Exponentially dividing cells were plated into fresh medium on collagen-coated 12-well plastic dishes (10^5 cells/well). After allowing one day for cell attachment, the medium was replaced with low serum medium, with or without test compounds with each condition in triplicate. The medium may contain up to 0.2% ethanol, which was used as a solvent for most compounds tested. Cells were examined for morphological changes using an Olympus IMT-2 inverted research microscope. After 3 days incubation with test compounds, medium was removed and replaced with 0.2 ml of lysis and ChAT assay mixture. The plates were incubated at 37° C. for 2 hours and then placed into a freezer at −20° C.
Compounds are judged NGF-like in this primary screen if they (1) increase the activity of ChAT, (2) enhance NGF-stimulated neurite outgrowth or (3) potentiate or appear additive with the action of NGF itself.
The assay mixture contained 100 mM phosphate, pH7.4, 0.1% NP40, 150 mM NaCl, 1.5 mM choline, 10 mM EDTA, 0.1 mM eserine, 0.1 mM acetyl-coenzyme A and about 0.5 uCi (40–70 Ci/mol) [14C]acetyl-coenzyme A in each ml of mixture. Thawed and lysed cell reaction mixtures were diluted to 1 ml with water and transferred to 7 ml scintillation vials containing 5 ml of extraction/scintillation fluid solution (50 mg triphenyl borate, 50 mg PPO, 20 mg POPOP per 100 ml of 20% acetonitrile/80% toluene) and vortexed for 10 seconds. After all 20 diluted well contents were transferred and mixed, all the vials were vortexed again for 30 seconds, rotated for about 2 hours, and then vortexed once more. The vials were centrifuged at 3000 rpm (rmax.=16 cm) for 15 minutes and then counted in a Beckman LS6500 scintillation counter. Background counts from reaction mixtures with extracts from non-stimulated cells (no NGF and no test compound) were subtracted from reaction product counts before comparisons of ChAT activities were made.
The following data were obtained for representative compounds of the present invention which (1) increased the activity of choline acetyltransferase ChAT), (2) enhanced NGF-stimulated neurite outgrowth and/or (3) potentiated or appeared additive with the action of NGF itself. The concentration at which the test compound doubled the ChAT activity over the activity with NGF alone (no test compound) was recorded as the EC2x value.

Take `Cl.Oc1ccc(Nc2ncncc2C#Cc2ccccc2)cc1`: the melting point (usually the temperature, or range, at which the solid turns liquid) was 223 to 225 °C (dec.).
In the case of `COc1ccc(C#Cc2cnc(N)nc2Nc2ccc(O)cc2)cc1.Cl`, the melting point was 220 to 230 °C (dec.).
The compound `O[C@H]1CC[C@H](Nc2ncncc2C#Cc2ccc(Cl)cc2)CC1` (hydrate or solvate) [Example 4, 5-(4-chlorophenylethynyl)-4-(trans-4-hydroxycyclohexylamino) pyrimidine] came in with a melting point of 151 to 155 °C.
Take `O[C@H]1CC[C@H](Nc2ncncc2C#Cc2ccc(Cl)cc2)CC1` [Example 4, 5-(4-chlorophenylethynyl)-4-(trans-4-hydroxycyclohexylamino) pyrimidine]: in the data set on PC12 cells, the “EC2× (concentration at which the test compound doubled the ChAT activity over the activity with NGF alone)” value worked out at 0.2 µM.
Regarding `Nc1ncc(C#Cc2ccccc2)c(N[C@H]2CC[C@H](O)CC2)n1` [Example 9, 2-amino-4-(trans-4-hydroxycyclohexylamino)-5-phenylethynylpyrimidine], the “EC2× (concentration at which the test compound doubled the ChAT activity over the activity with NGF alone)” value with PC12 cells came to 0.1 µM.
`Nc1ncc(C#Cc2ccc(Cl)cc2)c(N[C@H]2CC[C@H](O)CC2)n1` [Example 12, 2-amino-5-(4-chlorophenylethynyl)-4-(trans-4-hydroxycyclohexylamino)pyrimidine] returned a melting point of 215 to 218 °C. In addition, in the data set on PC12 cells, the “EC2× (concentration at which the test compound doubled the ChAT activity over the activity with NGF alone)” value is 0.2 µM.
`Nc1ncc(C#Cc2ccc(Cl)cc2)c(NCCO)n1` [Example 13, 2-amino-5-(4-chlorophenylethynyl)-4-(2-hyroxyethylamino) pyrimidine]: the “EC2× (concentration at which the test compound doubled the ChAT activity over the activity with NGF alone)” value in the data set on PC12 cells was found to be 0.3 µM.
`Nc1ncc(C#Cc2ccc(Cl)cc2)c(NCCOCCO)n1` [Example 14, 2-amino-5-(4-chlorophenylethynyl)-4-[2-(2-hydroxyethoxy)ethylamino]pyrimidine] registered a melting point of 176 to 180 °C. The “EC2× (concentration at which the test compound doubled the ChAT activity over the activity with NGF alone)” value with PC12 cells was 0.5 µM.
With `Nc1ncc(C#Cc2ccccc2)c(NCCOCCO)n1` [Example 19, 2-amino-4-[2-(2-hydroxyethoxy)ethylamino]-5-phenylethynyl pyrimidine], the melting point lay in the range of 128 to 129 °C.
Turning to `Nc1ncc(C#Cc2ccc(Cl)cc2)c(N[C@H]2CC[C@@H](O)CC2)n1` [Example 23, 2-amino-5-(4-chlorophenylethynyl)-4-(4-cis-hydroxycyclohexylamino)pyrimidine], the “EC2× (concentration at which the test compound doubled the ChAT activity over the activity with NGF alone)” value in the data set with PC12 cells is 0.3 µM.
`CCc1ccc(C#Cc2cnc(N)nc2N[C@H]2CC[C@H](O)CC2)cc1.Cl` [Example 26, 2-amino-5-(4-ethylphenylethynyl)-4-(4-trans-hydroxycyclohexylamino) pyrimidine hydrochloride]: the “EC2× (concentration at which the test compound doubled the ChAT activity over the activity with NGF alone)” value in the data set with PC12 cells stood at 0.2 µM.
In turn, `Nc1ncc(C#Cc2ccc(Cl)cc2)c(OC2CCC(=O)CC2)n1` [Example 41, 2-amino-5-(4-chlorophenylethynyl)-4-(4-oxocyclohexyloxy) pyrimidine] displayed a melting point of 168 to 172 °C.
